Values of other authors in patent publication US10324098B2, “T2R taste receptors and genes encoding same” (SENOMYX, INC., priority 2000, dated 2019).

Legend:
[1] = target: T1, mouse T2R8 (Mus musculus, UniProt Q9JKT3)
T1 sequence (Q9JKT3 1-297): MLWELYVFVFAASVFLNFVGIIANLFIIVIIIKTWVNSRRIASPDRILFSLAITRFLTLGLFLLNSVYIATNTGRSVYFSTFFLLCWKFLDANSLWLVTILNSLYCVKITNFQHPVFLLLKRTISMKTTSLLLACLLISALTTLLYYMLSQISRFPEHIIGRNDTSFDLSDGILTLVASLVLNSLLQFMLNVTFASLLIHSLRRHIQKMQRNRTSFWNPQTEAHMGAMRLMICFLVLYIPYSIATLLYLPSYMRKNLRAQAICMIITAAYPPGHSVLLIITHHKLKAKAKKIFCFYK

[2] = target: T2, human T2R4 (Homo sapiens, UniProt Q9NYW5)
T2 sequence (Q9NYW5 1-299): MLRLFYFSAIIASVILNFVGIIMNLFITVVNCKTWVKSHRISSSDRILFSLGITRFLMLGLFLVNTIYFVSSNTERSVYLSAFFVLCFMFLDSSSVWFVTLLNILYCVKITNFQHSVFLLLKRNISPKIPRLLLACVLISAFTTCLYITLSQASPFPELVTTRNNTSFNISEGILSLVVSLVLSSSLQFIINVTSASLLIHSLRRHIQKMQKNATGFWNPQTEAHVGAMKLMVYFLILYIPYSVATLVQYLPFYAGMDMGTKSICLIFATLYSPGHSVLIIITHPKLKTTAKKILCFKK

[3] = target: T3, mouse T2R5 (Mus musculus, UniProt Q9JKT4)
T3 sequence (Q9JKT4 1-300): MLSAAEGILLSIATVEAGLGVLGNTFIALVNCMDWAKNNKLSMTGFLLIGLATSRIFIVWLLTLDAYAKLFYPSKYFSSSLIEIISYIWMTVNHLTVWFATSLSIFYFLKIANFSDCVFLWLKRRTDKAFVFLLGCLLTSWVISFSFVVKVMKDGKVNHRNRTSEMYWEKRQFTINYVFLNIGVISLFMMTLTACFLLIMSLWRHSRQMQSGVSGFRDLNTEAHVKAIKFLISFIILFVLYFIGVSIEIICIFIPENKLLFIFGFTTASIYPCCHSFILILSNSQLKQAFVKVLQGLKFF

[4] = target: T3, mouse T2R5; conditions: mouse T2R5, G Protein gustducin

| Structure (SMILES) | receptor responsive to tastant [1] | receptor responsive to tastant [2] | receptor receptive to tastant [3] | ligand dependent coupling with gustducin [4] |
| --- | --- | --- | --- | --- |
| CCCc1cc(=O)[nH]c(=S)[nH]1 [PROP, 6-n-propylthiouracil] | specifically responsive | specifically responsive |  |  |
| C[C@@H]1C[C@@H]([C@H](O)CC2CC(=O)NC(=O)C2)C(=O)[C@@H](C)C1 [cycloheximide] |  |  | specifically receptive | strong cycloheximide dependent coupling with gustducin |
| CC[N+](CC)(CC(=O)Nc1c(C)cccc1C)Cc1ccccc1 [denatonium] | specifically responsive | specifically responsive |  |  |
